Assay in all cases: relative viability (nuclei count vs DMSO), 5 days (fraction); higher = more cells survive
Compound in assay [1]: C1=CC=C(C(=C1)C2=CC=C(C=C2)C3=CSC4=C3C(=C(C(=O)N4)C#N)O)O + O=C(c1cc(Cc2n[nH]c(=O)c3ccccc23)ccc1F)N1CCN(C(=O)C2CC2)CC1 [Olaparib] (partner 8 µM)
The method, boiled down:
(§1)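 One day after seeding in 1536-well plates, lung cancer cell lines were dosed by pin tool. Dosing was either single-drug or a fixed anchor-drug dose plus five library-drug doses (not always all listed) in √10 steps. After 5 days, nuclei were stained in one fix-and-stain step and counted on 4× images, and relative viability is the nuclei count of treated wells over that of vehicle wells, given as the median of duplicate plates.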

Compound in the assay “TGX 221 + Foretinib”: CC1=CN2C(=O)C=C(N=C2C(=C1)C(C)NC3=CC=CC=C3)N4CCOCC4 [TGX 221] + COc1cc2c(Oc3ccc(NC(=O)C4(C(=O)Nc5ccc(F)cc5)CC4)cc3F)ccnc2cc1OCCCN1CCOCC1 [Foretinib] (partner 0.25 µM)
The method, boiled down:
as §1

Compound in assay [2]: O=C(CCCCCCNC(=O)c1cnc(N(c2ccccc2)c2ccccc2)nc1)NO [Ricolinostat] + Nc1ncn([C@H]2C[C@H](O)[C@@H](CO)O2)c(=O)n1 [Decitabine] (partner 2 µM)
The method in brief:
as §1

Compound in the assay “TGX 221 + Palbociclib”: CC1=CN2C(=O)C=C(N=C2C(=C1)C(C)NC3=CC=CC=C3)N4CCOCC4 [TGX 221] + CC(=O)c1c(C)c2cnc(Nc3ccc(N4CCNCC4)cn3)nc2n(C2CCCC2)c1=O [Palbociclib] (partner 0.5 µM)
The method in brief: as §1

12 cell lines from the supplement of paper PMC10307832 can be followed below.

As for NCI-H1299, the relative viability in assay [1] (first compound 0.08 µM) worked out at 1.01; in assay [1] (first compound 0.253 µM), 0.992; in assay [1] (first compound 0.8 µM), 0.959; in assay [1] (first compound 2.53 µM), 0.942; in assay [1] (first compound 8 µM), 0.967; with TGX 221 + Foretinib (first compound 0.08 µM), 1.12. In addition, the relative viability with TGX 221 + Foretinib (first compound 0.253 µM) is 1.06; in the assay with TGX 221 + Foretinib (first compound 0.8 µM), 1.1; in the assay with TGX 221 + Foretinib (first compound 2.53 µM), 1.13; in the assay with TGX 221 + Foretinib (first compound 8 µM) it was 1.07.

As for NCI-H1703, the relative viability in assay [1] (first compound 0.08 µM) is 0.422; in assay [1] (first compound 0.253 µM) it was 0.417; in assay [1] (first compound 0.8 µM), 0.682; in assay [1] (first compound 2.53 µM), 0.336; in assay [1] (first compound 8 µM), 0.362; with TGX 221 + Foretinib (first compound 0.08 µM), 0.328. Also, the relative viability came out at 0.275 with TGX 221 + Foretinib (first compound 0.253 µM), 0.335 in the assay with TGX 221 + Foretinib (first compound 0.8 µM), 0.317 with TGX 221 + Foretinib (first compound 2.53 µM) and 0.337 in the assay with TGX 221 + Foretinib (first compound 8 µM).

On to NCI-H522, for which the relative viability is 0.567 in assay [1] (first compound 0.08 µM); 0.674 in assay [1] (first compound 0.253 µM); 0.778 in assay [1] (first compound 0.8 µM); 0.56 in assay [1] (first compound 2.53 µM); 0.645 in assay [1] (first compound 8 µM); 0.641 in assay [2] (first compound 0.08 µM). The relative viability was 0.702 in assay [2] (first compound 0.253 µM); 0.714 in assay [2] (first compound 0.8 µM); 0.642 in assay [2] (first compound 2.53 µM); 0.941 with TGX 221 + Palbociclib (first compound 0.08 µM); 1.01 in the assay with TGX 221 + Palbociclib (first compound 0.253 µM); 0.929 with TGX 221 + Palbociclib (first compound 0.8 µM). Besides, the relative viability with TGX 221 + Palbociclib (first compound 2.53 µM) amounted to 0.944; with TGX 221 + Palbociclib (first compound 8 µM), 0.815.

As for NCI-H596, the relative viability was 0.594 in assay [1] (first compound 0.08 µM); 0.683 in assay [1] (first compound 0.253 µM); 0.695 in assay [1] (first compound 0.8 µM); 0.539 in assay [1] (first compound 2.53 µM); 0.658 in assay [1] (first compound 8 µM); 0.844 with TGX 221 + Foretinib (first compound 0.08 µM). In addition, the relative viability with TGX 221 + Foretinib (first compound 0.253 µM) was found to be 0.928; with TGX 221 + Foretinib (first compound 0.8 µM), 0.856; in the assay with TGX 221 + Foretinib (first compound 2.53 µM), 0.894; with TGX 221 + Foretinib (first compound 8 µM), 0.797; in assay [2] (first compound 0.08 µM) it was 0.992; in assay [2] (first compound 0.253 µM), 0.981. In addition, the relative viability in assay [2] (first compound 0.8 µM) came out at 0.99; in assay [2] (first compound 2.53 µM) it was 1.67.

On to NCI-H1623, for which the relative viability in the assay with TGX 221 + Foretinib (first compound 0.08 µM) was found to be 0.815; with TGX 221 + Foretinib (first compound 0.253 µM), 0.858; in the assay with TGX 221 + Foretinib (first compound 0.8 µM) it was 0.827; with TGX 221 + Foretinib (first compound 2.53 µM) it was 0.826; with TGX 221 + Foretinib (first compound 8 µM), 0.77.

As for NCI-H1648, the relative viability in assay [1] (first compound 0.253 µM) was 0.689; in assay [1] (first compound 0.8 µM) it was 0.841; in assay [1] (first compound 2.53 µM) it was 0.31; in assay [1] (first compound 8 µM), 0.722; in assay [2] (first compound 0.253 µM) it was 0.506; in assay [2] (first compound 0.8 µM), 0.486. Also, the relative viability in assay [2] (first compound 2.53 µM) is 0.316; with TGX 221 + Palbociclib (first compound 0.253 µM), 0.247; in the assay with TGX 221 + Palbociclib (first compound 0.8 µM) it was 0.231; with TGX 221 + Palbociclib (first compound 2.53 µM), 0.25; with TGX 221 + Palbociclib (first compound 8 µM) it was 0.273.

For the cell line NCI-H1563, the relative viability with TGX 221 + Foretinib (first compound 0.08 µM) is 0.855; with TGX 221 + Foretinib (first compound 0.253 µM), 0.875; in the assay with TGX 221 + Foretinib (first compound 0.8 µM), 0.936; in the assay with TGX 221 + Foretinib (first compound 2.53 µM) it was 0.836; in the assay with TGX 221 + Foretinib (first compound 8 µM), 0.68.

Regarding Calu-6, the relative viability in assay [1] (first compound 0.08 µM) worked out at 0.721; in assay [1] (first compound 0.253 µM), 0.595; in assay [1] (first compound 0.8 µM), 0.643; in assay [1] (first compound 2.53 µM), 0.63; in assay [1] (first compound 8 µM) it was 0.615; with TGX 221 + Foretinib (first compound 0.08 µM) it was 0.888. Further, the relative viability is 0.8 with TGX 221 + Foretinib (first compound 0.253 µM), 0.88 in the assay with TGX 221 + Foretinib (first compound 0.8 µM), 0.923 with TGX 221 + Foretinib (first compound 2.53 µM) and 0.815 with TGX 221 + Foretinib (first compound 8 µM).

For the cell line NCI-H2228, the relative viability was determined as 0.425 in assay [1] (first compound 0.08 µM); 0.604 in assay [1] (first compound 0.253 µM); 0.568 in assay [1] (first compound 0.8 µM); 0.613 in assay [1] (first compound 2.53 µM); 0.575 in assay [1] (first compound 8 µM); 0.738 with TGX 221 + Foretinib (first compound 0.08 µM). The relative viability with TGX 221 + Foretinib (first compound 0.253 µM) was determined as 0.853; with TGX 221 + Foretinib (first compound 0.8 µM), 0.787; with TGX 221 + Foretinib (first compound 2.53 µM), 0.754; with TGX 221 + Foretinib (first compound 8 µM), 0.72; in the assay with TGX 221 + Palbociclib (first compound 0.08 µM) it was 0.692; with TGX 221 + Palbociclib (first compound 0.253 µM) it was 0.689. In addition, the relative viability is 0.989 with TGX 221 + Palbociclib (first compound 0.8 µM), 0.675 in the assay with TGX 221 + Palbociclib (first compound 2.53 µM) and 0.719 with TGX 221 + Palbociclib (first compound 8 µM).

In the case of A549, the relative viability was determined as 0.275 in assay [1] (first compound 0.08 µM); 0.208 in assay [1] (first compound 0.253 µM); 0.314 in assay [1] (first compound 0.8 µM); 0.375 in assay [1] (first compound 2.53 µM); 0.379 in assay [1] (first compound 8 µM); 1.05 with TGX 221 + Foretinib (first compound 0.08 µM). Moreover, the relative viability with TGX 221 + Foretinib (first compound 0.253 µM) was 0.917; with TGX 221 + Foretinib (first compound 0.8 µM), 0.997; with TGX 221 + Foretinib (first compound 2.53 µM), 1.06; with TGX 221 + Foretinib (first compound 8 µM), 0.801; in assay [2] (first compound 0.08 µM), 0.314; in assay [2] (first compound 0.253 µM), 0.259. For the same cell line, the relative viability in assay [2] (first compound 0.8 µM) is 0.306; in assay [2] (first compound 2.53 µM), 0.246.

For the cell line HCC-44, the relative viability came to 0.979 in assay [1] (first compound 0.08 µM); 1.14 in assay [1] (first compound 0.253 µM); 1.01 in assay [1] (first compound 0.8 µM); 1.01 in assay [1] (first compound 2.53 µM); 0.887 in assay [1] (first compound 8 µM); 1 in assay [2] (first compound 0.08 µM). Also, the relative viability in assay [2] (first compound 0.253 µM) is 0.948; in assay [2] (first compound 0.8 µM), 0.926; in assay [2] (first compound 2.53 µM) it was 0.951; with TGX 221 + Palbociclib (first compound 0.08 µM) it was 1.02; in the assay with TGX 221 + Palbociclib (first compound 0.253 µM) it was 1.01; in the assay with TGX 221 + Palbociclib (first compound 0.8 µM) it was 1. Moreover, the values for the relative viability in the assay with TGX 221 + Palbociclib (first compound 2.53 µM) and with TGX 221 + Palbociclib (first compound 8 µM) were 0.933 and 0.991, respectively.

As to IA-LM, the relative viability in assay [1] (first compound 0.08 µM) worked out at 0.799; in assay [1] (first compound 0.253 µM) it was 0.967; in assay [1] (first compound 0.8 µM), 0.9; in assay [1] (first compound 2.53 µM), 0.799; in assay [1] (first compound 8 µM) it was 0.771; in the assay with TGX 221 + Foretinib (first compound 0.08 µM), 1.18. For the same cell line, the relative viability with TGX 221 + Foretinib (first compound 0.253 µM) is 1.04; with TGX 221 + Foretinib (first compound 0.8 µM), 1.08; with TGX 221 + Foretinib (first compound 2.53 µM) it was 1.22; with TGX 221 + Foretinib (first compound 8 µM) it was 1.11.
